From BindingDB's records for doi:10.1016/s0960-894x(98)00019-5 (Abbott Laboratories, 1999)

Assay: Inhibitory concentration to antagonise cation efflux in nAChR subtype human alpha3betaX, expressed in IMR-32 cells

Row | SMILES | IC50 [µM]
1 | CCCc1cncc(OC[C@@H]2CCCN2C)c1 [3-((S)-1-Methyl-pyrrolidin-2-ylmethoxy)-5-propyl-pyridine] | 3.2
2 | CCCCc1cncc(OC[C@@H]2CCCN2C)c1 [3-Butyl-5-((S)-1-methyl-pyrrolidin-2-ylmethoxy)-pyridine] | 5
